Measured values reported in patent US8729089B2 (Gilead Sciences, Inc., priority 2006, dated 2014).

Key:
[1] = tested on: HCV replicon in human hepatoma Huh-7 cell line; assay: Anti-HCV replicon assay (EC50, luciferase); format: cell-based; details: Hepatitis C virus, Huh-7, 72 h
In short: (§1)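 Cytotoxicity (CC50) measured by CellTiter-Glo and antiviral activity (EC50) by luciferase signal from lysed cells, both by luminescence. Replicon-bearing Huh-7 cells, 6000 per well, incubated 3 days at 37 °C with threefold-diluted compound (0.5% DMSO for DMSO-dissolved compounds).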

[2] = CC50 assay (CellTiter-Glo) in Huh-7 HCV replicon cells; format: cell-based, human; details: human, 3 days incubation, CellTiter-Glo readout
In short: as §1

Row | Structure (SMILES) | EC50 [1] [µM] | CC50 at 3 days [2] [µM]
1 | C[C@H](N)C(=O)Nc1ccc(-c2ccc3nc(NCc4ccc(S(N)(=O)=O)cc4)nc(NCC(F)(F)F)c3n2)cc1F [Example 216, 2-Amino-N-{2-fluoro-4-[2-(4-sulfamoyl-benzylamino)-4-(2,2,2-trifluoro-ethylamino)-pyrido[3,2-d]pyrimidin-6-yl]-phenyl}-propionamide] | < 0.1 | < 5
2 | NS(=O)(=O)c1ccc(CNc2nc(NCC(F)(F)F)c3nc(-c4ccc(F)c(S(=O)(=O)N5CCNCC5)c4)ccc3n2)cc1 [Example 217, 4-{[6-[4-Fluoro-3-(piperazine-1-sulfonyl)-phenyl]-4-(2,2,2-trifluoro-ethylamino)-pyrido[3,2-d]pyrimidin-2-ylamino]-methyl}-benzenesulfonamide] | < 0.1 | < 5
3 | CC(C)(C)OC(=O)N1CCN(S(=O)(=O)c2cc(-c3ccc4nc(NCc5ccc(S(N)(=O)=O)cc5)nc(NCC(F)(F)F)c4n3)ccc2F)CC1 [Example 218, 4-{2-Fluoro-5-[2-(4-sulfamoyl-benzylamino)-4-(2,2,2-trifluoro-ethylamino)-pyrido[3,2-d]pyrimidin-6-yl]-benzenesulfonyl}-piperazine-1-carboxylic acid tert-butyl ester] | < 0.1 | 5 to 25
4 | NS(=O)(=O)c1ccc(CNc2nc(NCC(F)(F)F)c3nc(-c4ccc(NC(=O)[C@H]5CCNC5)c(F)c4)ccc3n2)cc1 [Example 219, Pyrrolidine-3-carboxylic acid {2-fluoro-4-[2-(4-sulfamoyl-benzylamino)-4-(2,2,2-trifluoro-ethylamino)-pyrido[3,2-d]pyrimidin-6-yl]-phenyl}-amide] | < 0.1 | < 5
5 | C[C@@H](O)C(=O)Nc1ccc(-c2ccc3nc(NCc4ccc(S(N)(=O)=O)cc4)nc(NCC(F)(F)F)c3n2)cc1 [Example 220, 2-Hydroxy-N-{4-[2-(4-sulfamoyl-benzylamino)-4-(2,2,2-trifluoro-ethylamino)-pyrido[3,2-d]pyrimidin-6-yl]-phenyl}-propionamide] | < 0.1 | 5 to 25
6 | C[C@H](N)C(=O)Nc1ccc(-c2ccc3nc(NCc4ccc(S(N)(=O)=O)cc4)nc(NCC(F)(F)F)c3n2)cc1 [Example 221, 2-Amino-N-{4-[2-(4-sulfamoyl-benzylamino)-4-(2,2,2-trifluoro-ethylamino)-pyrido[3,2-d]pyrimidin-6-yl]-phenyl}-propionamide] | < 0.1 | > 25
7 | NS(=O)(=O)c1ccc(CNc2nc(NCC(F)(F)F)c3nc(-c4ccc(NC(=O)[C@H]5CCNC5)cc4)ccc3n2)cc1 [Example 222, Pyrrolidine-3-carboxylic acid {4-[2-(4-sulfamoyl-benzylamino)-4-(2,2,2-trifluoro-ethylamino)-pyrido[3,2-d]pyrimidin-6-yl]-phenyl}-amide] | < 0.1 | 5 to 25
8 | NS(=O)(=O)c1ccc(CNc2nc(NCC(F)(F)F)c3nc(-c4ccc(NC(=O)OCCN5CCCC5)cc4)ccc3n2)cc1 [Example 223, {4-[2-(4-Sulfamoyl-benzylamino)-4-(2,2,2-trifluoro-ethylamino)-pyrido[3,2-d]pyrimidin-6-yl]-phenyl}-carbamic acid 2-pyrrolidin-1-yl-ethyl ester] | < 0.1 | 5 to 25
9 | NS(=O)(=O)c1cc(-c2ccc3nc(NCc4ccc(F)cc4)nc(NCC(F)(F)F)c3n2)ccc1F [Example 224, 2-Fluoro-5-[2-(4-fluoro-benzylamino)-4-(2,2,2-trifluoro-ethylamino)-pyrido[3,2-d]pyrimidin-6-yl]-benzenesulfonamide] | < 0.1 | > 25
10 | NS(=O)(=O)c1ccc(CNc2nc(NCC(F)(F)F)c3nc(-c4ccc(F)c(S(N)(=O)=O)c4)ccc3n2)cc1 [Example 225, 2-Fluoro-5-[2-(4-sulfamoyl-benzylamino)-4-(2,2,2-trifluoro-ethylamino)-pyrido[3,2-d]pyrimidin-6-yl]-benzenesulfonamide] | < 0.1 | > 25
11 | CCOc1nc(NCc2ccc(S(N)(=O)=O)cc2)nc2ccc(-c3ccc(NC(=O)[C@@H](N)[C@H](C)O)cc3)nc12 [Example 226, 2-Amino-N-{4-[4-ethoxy-2-(4-sulfamoyl-benzylamino)-pyrido[3,2-d]pyrimidin-6-yl]-phenyl}-3-hydroxy-butyramide] | < 0.1 | > 25
12 | CCOc1nc(NCc2ccc(S(N)(=O)=O)cc2)nc2ccc(-c3ccc(N4CC(O)CC4=O)cc3)nc12 (stereo not drawn) [Example 227, 4-({4-Ethoxy-6-[4-(4-hydroxy-2-oxo-pyrrolidin-1-yl)-phenyl]-pyrido[3,2-d]pyrimidin-2-ylamino}-methyl)-benzenesulfonamide] | < 0.1 | > 25
13 | NS(=O)(=O)c1ccc(CNc2nc(Nc3ccc(-n4cncn4)cc3)c3nc(-c4ccc(F)cc4)ccc3n2)cc1 [Example 228, 4-{[6-(4-Fluoro-phenyl)-4-(4-[1,2,4]triazol-1-yl-phenylamino)-pyrido[3,2-d]pyrimidin-2-ylamino]-methyl}-benzenesulfonamide] | < 0.1 | < 5
14 | NS(=O)(=O)c1ccc(CNc2nc(Nc3cccc(F)c3)c3nc(-c4ccc(F)cc4)ccc3n2)cc1 [Example 229, 4-{[6-(4-Fluoro-phenyl)-4-(3-fluoro-phenylamino)-pyrido[3,2-d]pyrimidin-2-ylamino]-methyl}-benzenesulfonamide] | < 0.1 | < 5
15 | CS(=O)(=O)Nc1cc(-c2ccc3nc(NCc4ccc(S(N)(=O)=O)cc4)nc(NCC(F)(F)F)c3n2)ccc1F [Example 230, 4-{[6-(4-Fluoro-3-methanesulfonylamino-phenyl)-4-(2,2,2-trifluoro-ethylamino)-pyrido[3,2-d]pyrimidin-2-ylamino]-methyl}-benzenesulfonamide] | < 0.1 | 5 to 25
16 | NS(=O)(=O)c1ccc(CNc2nc(NCC(F)(F)F)c3nc(-c4ccc(F)c(NS(=O)(=O)C5CC5)c4)ccc3n2)cc1 [Example 231, 4-{[6-(3-Cyclopropanesulfonylamino-4-fluoro-phenyl)-4-(2,2,2-trifluoro-ethylamino)-pyrido[3,2-d]pyrimidin-2-ylamino]-methyl}-benzenesulfonamide] | < 0.1 | > 25
17 | NS(=O)(=O)c1ccc(CNc2nc(NCC(F)(F)F)c3nc(-c4cccc(S(N)(=O)=O)c4)ccc3n2)cc1 [Example 232, 3-[2-(4-sulfamoyl-benzylamino)-4-(2,2,2-trifluoro-ethylamino)-pyrido[3,2-d]pyrimidin-6-yl]-benzenesulfonamide] | < 0.1 | > 25
18 | NS(=O)(=O)c1ccc(CNc2nc(NCC(F)(F)F)c3nc(-c4ccc(F)c(Cl)c4)ccc3n2)cc1 [Example 233, 4-{[6-(3-Chloro-4-fluoro-phenyl)-4-(2,2,2-trifluoro-ethylamino)-pyrido[3,2-d]pyrimidin-2-ylamino]-methyl}-benzenesulfonamide] | < 0.1 | 5 to 25
19 | NS(=O)(=O)c1ccc(CNc2nc(OC3CC3)c3nc(-c4ccc(F)cc4)ccc3n2)cc1 [Example 234, 4-{[4-Cyclopropoxy-6-(4-fluoro-phenyl)-pyrido[3,2-d]pyrimidin-2-ylamino]-methyl}-benzenesulfonamide] | < 0.1 | 5 to 25
20 | NS(=O)(=O)c1ccc(CNc2nc(Oc3cccc(F)c3)c3nc(-c4ccc(F)cc4)ccc3n2)cc1 [Example 235, 4-{[4-(3-Fluoro-phenoxy)-6-(4-fluoro-phenyl)-pyrido[3,2-d]pyrimidin-2-ylamino]-methyl}-benzenesulfonamide] | < 0.1 | 5 to 25
21 | COCCOc1nc(NCc2ccc(S(N)(=O)=O)cc2)nc2ccc(-c3ccc(F)c(Cl)c3)nc12 [Example 236, 4-{[6-(3-Chloro-4-fluoro-phenyl)-4-(2-methoxy-ethoxy)-pyrido[3,2-d]pyrimidin-2-ylamino]-methyl}-benzenesulfonamide] | < 0.1 | 5 to 25
22 | COCCOc1nc(NCc2ccc(S(N)(=O)=O)cc2)nc2ccc(-c3ccc(F)cc3)nc12 [Example 237, 4-{[6-(4-Fluoro-phenyl)-4-(2-methoxy-ethoxy)-pyrido[3,2-d]pyrimidin-2-ylamino]-methyl}-benzenesulfonamide] | < 0.1 | < 5
23 | NS(=O)(=O)c1cccc(CNc2nc(NCC(F)(F)F)c3nc(-c4ccc(F)cc4)ccc3n2)c1 [Example 238, 3-{[6-(4-Fluoro-phenyl)-4-(2,2,2-trifluoro-ethylamino)-pyrido[3,2-d]pyrimidin-2-ylamino]-methyl}-benzenesulfonamide] | < 0.1 | < 5
24 | Fc1ccc(-c2ccc3nc(NCc4ccc(N5CCCC5)cc4)nc(NCC(F)(F)F)c3n2)cc1 [Example 239, 6-(4-Fluoro-phenyl)-N2-(4-pyrrolidin-1-yl-benzyl)-N4-(2,2,2-trifluoro-ethyl)-pyrido[3,2-d]pyrimidine-2,4-diamine] | < 0.1 | 5 to 25
25 | CN1CCN(c2ccc(CNc3nc(NCC(F)(F)F)c4nc(-c5ccc(F)cc5)ccc4n3)cc2)CC1 [Example 240, 6-(4-Fluoro-phenyl)-N2-[4-(4-methyl-piperazin-1-yl)-benzyl]-N4-(2,2,2-trifluoro-ethyl)-pyrido[3,2-d]pyrimidine-2,4-diamine] | < 0.1 | < 5
26 | CS(=O)(=O)Nc1ccc(CNc2nc(NCC(F)(F)F)c3nc(-c4ccc(F)cc4)ccc3n2)cc1 [Example 241, N-(4-{[6-(4-Fluoro-phenyl)-4-(2,2,2-trifluoro-ethylamino)-pyrido[3,2-d]pyrimidin-2-ylamino]-methyl}-phenyl)-methanesulfonamide] | < 0.1 | 5 to 25
27 | CN(C)C(=O)c1ccc(CNc2nc(NCC(F)(F)F)c3nc(-c4ccc(F)cc4)ccc3n2)cc1 [Example 242, 4-{[6-(4-Fluoro-phenyl)-4-(2,2,2-trifluoro-ethylamino)-pyrido[3,2-d]pyrimidin-2-ylamino]-methyl}-N,N-dimethyl-benzamide] | < 0.1 | > 25
